# From patent US10471046B2, “Method for treating, preventing, or reducing the risk of skin infection” (Melinta Subsidiary Corp., priority 2014, dated 2019)
# Like-named read-outs stand apart in the source and are kept apart here.
# System: S. aureus
# Assay: Minimum inhibitory concentrations (MICs) for S. aureus of exemplary compounds (Table 2)
# Type: cell-based
# Details: Staphylococcus aureus, read-out: MICs
# Description: Exemplary compounds in accordance with the invention are listed in Table 2 with their minimum inhibitory concentrations (MICs) (μg/mL) for S. aureus:
# Furthermore, the antibiotic compounds can be assayed for anti-proliferative or anti-infective properties on a cellular level. For example, where the target organism is a microorganism, the activity of compounds of interest can be assayed by growing the microorganisms of interest in media either containing or lacking the compound. Growth inhibition can be indicative that the molecule could be acting as a protein synthesis inhibitor. […] For this purpose, a panel of bacterial strains can be assembled to include a variety of target pathogenic species, some containing resistance mechanisms that have been characterized. Use of such a panel of organisms permits the determination of structure-activity relationships not only in regards to potency and spectrum, but also with a view to obviating resistance mechanisms. The assays can be performed in microtiter trays according to conventional methodologies as published by The National Committee for Clinical Laboratory Standards (NCCLS) guidelines (NCCLS. M7-A5-Methods for Dilution Antimicrobial Susceptibility Tests for Bacteria That Grow Aerobically; Approved Standard-Fifth Edition. NCCLS Document M100-S12/M7 (ISBN 1-56238-394-9)).
# [1] = minimum inhibitory concentrations for S. aureus
structure (smiles),measurement,setting,value
"CC(=O)NC[C@H]1CN(c2ccc(-c3ccc(CNCc4cc(-c5ccccc5)oc4C)cc3)c(F)c2)C(=O)O1 [Compound 4130, N-[3-(2-Fluoro-4′-{[(2-methyl-5-phenyl-furan-3-ylmethyl)-amino]-methyl}-biphenyl-4-yl)-2-oxo-oxazolidin-5-(S)-ylmethyl]-acetamide]",MIC,[1],2 µg/mL
"CC(=O)NC[C@H]1CN(c2ccc(-c3ccc(C(NC(=O)OCc4ccccc4)c4nnn(C)n4)cc3)c(F)c2)C(=O)O1 (mixture of isomers) [Compound 1041, [{4′-[5-(S)-(Acetylamino-methyl)-2-oxo-oxazolidin-3-yl]-2′-fluoro-biphenyl-4-yl}-(2-methyl-2H-tetrazol-5-(R/S)-yl)-methyl]-carbamic acid benzyl ester]",MIC,[1],1 µg/mL
"CC(=O)NC[C@H]1CN(c2ccc(-c3ccc([C@H](CO)N4CCC4)cc3)c(F)c2)C(=O)O1 [Compound 1063, N-{3-[4′-(1-(R)-Azetidin-1-yl-2-hydroxy-ethyl)-2-fluoro-biphenyl-4-yl]-2-oxo-oxazolidin-5-(S)-ylmethyl}-acetamide]",MIC,[1],8 µg/mL
"CC(=O)NC[C@H]1CN(c2ccc(-c3ccc(CNCc4ccncc4)cc3)nc2)C(=O)O1 [Compound 4134, N-{2-Oxo-3-[6-(4-{[(pyridin-4-ylmethyl)-amino]-methyl}-phenyl)-pyridin-3-yl]-oxazolidin-5-(S)-ylmethyl}-acetamide]",MIC,[1],16 µg/mL
"CCc1ncc(CNCc2ccc(-c3ccc(N4C[C@H](CNC(C)=O)OC4=O)cc3F)cc2)[nH]1 [Compound 4124, N-[3-(4′-{[(2-Ethyl-3H-imidazol-4-ylmethyl)-amino]-methyl}-2-fluoro-biphenyl-4-yl)-2-oxo-oxazolidin-5-(S)-ylmethyl]-acetamide]",MIC,[1],16 µg/mL
"CC(=O)NC[C@H]1CN(c2ccc(-c3ccc(CSc4ncnn4C)cc3)c(F)c2)C(=O)O1 [Compound 2033, N-{3-[2-Fluoro-4′-(2-methyl-2H-[1,2,4]triazol-3-ylsulfanylmethyl)-biphenyl-4-yl]-2-oxo-oxazolidin-5-(S)-ylmethyl}-acetamide]",MIC,[1],1 µg/mL
"CC(=O)NC[C@H]1CN(c2ccc(-c3ccc(CSCc4ccncc4)cc3)c(F)c2)C(=O)O1 [Compound 4211, N-{3-[2-Fluoro-4′-(pyridin-4-ylmethylsulfanylmethyl)-biphenyl-4-yl]-2-oxo-oxazolidin-5-(S)-ylmethyl}-acetamide]",MIC,[1],0.25 µg/mL
"COc1cc(CN(C)Cc2ccncc2)ccc1-c1ccc(N2C[C@H](CNC(C)=O)OC2=O)cc1F [Compound 4033, N-(3-{2-Fluoro-2′-methoxy-4′-[(methyl-pyridm-4-ylmethyl-amino)-methyl]-biphenyl-4-yl}-2-oxo-oxazolidin-5-(S)-ylmethyl)-acetamide]",MIC,[1],8 µg/mL
"CC(=O)NC[C@H]1CN(c2ccc(-c3ccc(CNCc4ncon4)cc3)c(F)c2)C(=O)O1 [Compound 4233, N-[3-(2-Fluoro-4′-{[([1,2,4]oxadiazol-3-ylmethyl)-amino]-methyl}-biphenyl-4-yl)-2-oxo-oxazolidin-5-(S)-ylmethyl]-acetamide]",MIC,[1],0.5 µg/mL
"CC(=O)NC[C@H]1CN(c2ccc(-c3ccc(CNCCC4CCCN4C)cc3)c(F)c2)C(=O)O1 (mixture of isomers) [Compound 4150, N-[3-(2-Fluoro-4′-{[2-(R/S)-(1-methyl-pyrrolidin-2-yl)-ethylamino]-methyl}-biphenyl-4-yl)-2-oxo-oxazolidin-5-(S)-ylmethyl]-acetamide]",MIC,[1],16 µg/mL
"CC(=O)NC[C@H]1CN(c2ccc(-c3ccc(COCc4ccccn4)cc3)c(F)c2)C(=O)O1 [Compound 4192, N-{3-[2-Fluoro-4′-(pyridin-2-ylmethoxymethyl)-biphenyl-4-yl]-2-oxo-oxazolidin-5-(S)-ylmethyl}-acetamide]",MIC,[1],1 µg/mL
"CC(=O)NC[C@H]1CN(c2ccc(-c3ccc(CN(Cc4[nH]nnc4C)Cc4[nH]nnc4C)cc3)c(F)c2)C(=O)O1 [Compound 4270, N-[3-(4′-{[Bis-(5-methyl-3H-[1,2,3]triazol-4-ylmethyl)-amino]-methyl}-2-fluoro-biphenyl-4-yl)-2-oxo-oxazolidin-5-(S)-ylmethyl]-acetamide]",MIC,[1],4 µg/mL
"CC(=O)NC[C@H]1CN(c2ccc(-c3ccc(CNC(=O)c4ccnc5ccccc45)cc3)c(F)c2)C(=O)O1 [Compound 4008, Quinoline-4-carboxylic acid {4′-[5-(S)-(acetylamino-methyl)-2-oxo-oxazolidin-3-yl]-2′-fluoro-biphenyl-4-ylmethyl}-amide]",MIC,[1],1 µg/mL
"CCN(Cc1ccncc1)Cc1ccc(-c2ccc(N3C[C@H](CNC(C)=O)OC3=O)cc2F)cc1 [Compound 4035, N-(3-{4′-[(Ethyl-pyridin-4-ylmethyl-amino)-methyl]-2-fluoro-biphenyl-4-yl}-2-oxo-oxazolidin-5-(S)-ylmethyl)-acetamide]",MIC,[1],2 µg/mL
"CC(=O)NC[C@H]1CN(c2ccc(-c3ccc(CNCCC4C=Nc5ccc(C)cc54)cc3)c(F)c2)C(=O)O1 (stereo partly drawn) [Compound 4228, N-[3-(2-Fluoro-4′-{[2-(5-methyl-3H-indol-3-yl)-ethylamino]-methyl}-biphenyl-4-yl)-2-oxo-oxazolidin-5-(S)-ylmethyl]-acetamide]",MIC,[1],2 µg/mL
"COc1ncccc1CNCc1ccc(-c2ccc(N3C[C@H](CNC(C)=O)OC3=O)cc2F)cc1 [Compound 4151, N-[3-(2-Fluoro-4′-{[(2-methoxy-pyridin-3-ylmethyl)-amino]-methyl}-biphenyl-4-yl)-2-oxo-oxazolidin-5-(S)-ylmethyl]-acetamide]",MIC,[1],2 µg/mL
"CSc1nnnn1Cc1ccc(-c2ccc(N3C[C@H](CNC(C)=O)OC3=O)cc2F)cc1 [Compound 1079, N-{3-[2-Fluoro-4′-(5-methylsulfanyl-tetrazol-1-ylmethyl)-biphenyl-4-yl]-2-oxo-oxazolidin-5-(S)-ylmethyl}-acetamide]",MIC,[1],2 µg/mL
"CC(=O)NC[C@H]1CN(c2ccc(-c3ccc(C(N)c4nn[nH]n4)cc3)c(F)c2)C(=O)O1 (mixture of isomers) [Compound 1040, N-(3-{4′-[Amino-(2H-tetrazol-5-(R/S)-yl)-methyl]-2-fluoro-biphenyl-4-yl}-2-oxo-oxazolidin-5-(S)-ylmethyl)-acetamide]",MIC,[1],128 µg/mL
"CC(=O)NC[C@H]1CN(c2ccc(-c3ccc(CNCCCc4cn(Cc5ccccc5)nn4)cc3)c(F)c2)C(=O)O1 [Compound 4256, N-[3-(4′-{[3-(1-Benzyl-1H-[1,2,3]triazol-4-yl)-propylamino]-methyl}-2-fluoro-biphenyl-4-yl)-2-oxo-oxazolidin-5-(S)-ylmethyl]-acetamide]",MIC,[1],4 µg/mL
"CC(=O)NC[C@H]1CN(c2ccc(-c3ccc(CNCc4cc(C)on4)cc3)c(F)c2)C(=O)O1 [Compound 4229, N-[3-(2-Fluoro-4′-{[(5-methyl-isoxazol-3-ylmethyl)-amino]-methyl}-biphenyl-4-yl)-2-oxo-oxazolidin-5-(S)-ylmethyl]-acetamide]",MIC,[1],0.25 µg/mL
"CC(=O)NC[C@H]1CN(c2ccc(-c3ccc([C@@H](N)Cn4ccnc4)cc3)c(F)c2)C(=O)O1 [Compound 1031, N-{3-[4′-(R)-(1-Amino-2-imidazol-1-yl-ethyl)-2-fluoro-biphenyl-4-yl]-2-oxo-oxazolidin-5-(S)-ylmethyl}-acetamide]",MIC,[1],8 µg/mL
"COc1cccc(CNc2nc(Cc3ccc(-c4ccc(N5C[C@H](CNC(C)=O)OC5=O)cc4F)cc3)cs2)c1 [Compound 1021, N-(3-{2-Fluoro-4′-[2-(3-methoxy-benzylamino)-thiazol-4-ylmethyl]-biphenyl-4-yl}-2-oxo-oxazolidin-5-(S)-ylmethyl)-acetamide]",MIC,,1 µg/mL
"CC(=O)NC[C@H]1CN(c2ccc(-c3ccc(Cn4cnc5c(NCCO)ncnc54)cc3)c(F)c2)C(=O)O1 [Compound 1099, N-(3-{2-Fluoro-4′-[6-(2-hydroxy-ethylamino)-purin-9-ylmethyl]-biphenyl-4-yl}-2-oxo-oxazolidin-5-(S)-ylmethyl)-acetamide]",MIC,[1],2 µg/mL
"CC(=O)NC[C@H]1CN(c2ccc(-c3ccc(CNCc4ccc(Cl)cc4)cc3)c(F)c2)C(=O)O1 [Compound 4063, N-(3-{4′-[(4-Chloro-benzylamino)-methyl]-2-fluoro-biphenyl-4-yl}-2-oxo-oxazolidin-5-(S)-ylmethyl)-acetamide]",MIC,[1],2 µg/mL
"CC(=O)NC[C@H]1CN(c2ccc(-c3ccc(CNCc4c(C)[nH]c(=O)[nH]c4=O)cc3)c(F)c2)C(=O)O1 [Compound 4057, N-[3-(2-Fluoro-4′-{[(6-methyl-2,4-dioxo-1,2,3,4-tetrahydro-pyrimidin-5-ylmethyl)-amino]-methyl}-biphenyl-4-yl)-2-oxo-oxazolidin-5-(S)-ylmethyl]-acetamide]",MIC,[1],16 µg/mL
"CC(=O)NC[C@H]1CN(c2ccc(-c3ccc(CNC(=O)Nc4cccc(F)c4)cc3)c(F)c2)C(=O)O1 [Compound 5013, N-(3-{2-Fluoro-4′-[3-(3-fluoro-phenyl)-ureidomethyl]-biphenyl-4-yl}-2-oxo-oxazolidin-5-(S)-ylmethyl)-acetamide]",MIC,[1],32 µg/mL
"CC(=O)NC[C@H]1CN(c2ccc(-c3ccc(CNCCSc4nccs4)cc3)c(F)c2)C(=O)O1 [Compound 5006, N-[3-(2-Fluoro-4′-{[2-(thiazol-2-ylsulfanyl)-ethylamino]-methyl}-biphenyl-4-yl)-2-oxo-oxazolidin-5-(S)-ylmethyl]-acetamide]",MIC,[1],1 µg/mL
"CC(=O)NC[C@H]1CN(c2ccc(-c3ccc([C@H](CO)N4CCN(C=O)CC4)cc3)c(F)c2)C(=O)O1 [Compound 1045, N-(3-{2-Fluoro-4′-[1-(R)-(4-formyl-piperazin-1-yl)-2-hydroxy-ethyl]-biphenyl-4-yl}-2-oxo-oxazolidin-5-(S)-ylmethyl)-acetamide]",MIC,[1],0.5 µg/mL
